Assay results: article PMC11078746 (Nature, 2024)
Where two headings read alike, the source gives them in different places.

Legend:
SNU407 = assay: CFA 10-14 day clonogenic assay; type: cell-based; settings: Homo sapiens, SNU-407
SW48 = assay: 4 day proliferation assay (CellTiter-Glo); settings: for GI50: Homo sapiens, SW48, 96 h
HEC1B = assay: CFA 10-14 day clonogenic assay; type: cell-based; settings: Homo sapiens, HEC-1B
RecQ5 = molecular target: T1, RecQ5 (Homo sapiens, UniProt O94762); assay: RecQ selectivity ATPase assay; type: biochemical
T1 construct: Human RecQ5-D1D2 (UniProt: O94762, Asp11–Trp453); His tag (N); made in house; host or cells: E. coli BL21(DE3), by the 'analogous procedure'
Experimental: (§1) DNA sequence allowing expression of human BLM-D1D2RH (UniProt P54132: Lys640–Gly1298) fused at the amino-terminal end to His tag followed by TEV-cleavage site, was inserted into a pET-derived vector. Protein expression was performed in BL21(DE3) cells after IPTG induction. Cells were collected and resuspended in lysis buffer (50 mM NaH2PO4, 300 mM NaCl, 1 mM TCEP, 20 mM imidazole, pH 8.0) supplemented with 2 mM MgCl2, benzonase and 0.5 mM AEBSF. Cells were lysed with an Emulsiflex C3 homogenizer. After ultracentrifugation, the lysate was loaded onto a HisTrap HP column. Bound protein was eluted with an imidazole gradient in lysis buffer. The amino-terminal tag was cleaved with TEV protease. Cleaved protein was loaded on Resource S ion-exchange column and eluted with a NaCl gradient in IEX buffer (20 mM Tris, 1 mM TCEP, 10% glycerol, 20 mM NaCl, pH 7.4). As a final step, BLM-D1D2RH protein was concentrated and loaded onto the Superdex 75 gel-filtration column pre-equilibrated with SEC buffer (50 mM Tris, 150 mM NaCl, 10% glycerol, pH 7.4). Eluted target protein was concentrated and frozen on dry ice. An analogous procedure was used for the expression and purification of human RecQ1-D1D2 (UniProt: P46063, Asp62–Ser482) and Human RecQ5-D1D2 (UniProt: O94762, Asp11–Trp453) proteins.
(§2) We used an ADP-Glo assay kit (Promega) to monitor ATP hydrolysis. A 45-oligonucleotide with the following sequence: […], referred to as FLAP26, as described previously[45] was purchased from IDT (Integrated DNA Technologies) and used as a DNA substrate. […] The reaction was started by addition of 2.5 μl of ssDNA substrate at 0.4 nM and incubated for 30 min at room temperature. The reaction was stopped with the addition of 5 μl of the first ADP-Glo reagent and incubated for 1 h to remove the excess amount of ATP. Then, 10 μl of ATP detection reagent was added and incubated for an additional hour before reading. The luminescence output was recorded using the Pherastar reader, with a 5 min delay before reading. Each concentration of compounds was tested in duplicates in the assay plate. The compound potency (IC50 value) was determined using custom software (Novartis Helios software application) with a four-parameter sigmoid Hill-curve model. After normalization of activity values for the wells to percentage inhibition (percentage inhibition = [(high control activity − sample activity)/(high control activity − low control activity)] × 100), IC50 fitting was performed from the duplicate determinations present on each plate.
(§3) The same ATPase assay protocol was used with the three other RecQ protein constructs to assess the selectivity over WRN. Time-course experiments were performed to determine the best enzymatic assay conditions for each RecQ protein. The experiments were run as described above with 10 nM RecQ1 protein construct with 10 nM ssDNA substrate, 2 nM BLM protein construct with 0.2 nM ssDNA substrate and 0.5 nM RecQ5 protein construct with 2 nM ssDNA substrate, respectively.

RecQ1 = molecular target: T2, RecQ1 (Homo sapiens, UniProt P46063); assay: RecQ selectivity ATPase assay; type: biochemical
T2 construct: human RecQ1-D1D2 (UniProt: P46063, Asp62–Ser482); His tag (N); made in house; host or cells: E. coli BL21(DE3), by the 'analogous procedure'
Experimental: as §1, §2, §3

BLM = molecular target: T3, BLM (Homo sapiens, UniProt P54132); assay: RecQ selectivity ATPase assay; type: biochemical
T3 construct: human BLM-D1D2RH (UniProt P54132: Lys640–Gly1298); His tag (N, cleaved yes); made in house; host or cells: E. coli BL21(DE3)
Experimental: as §1, §2, §3

HCT116 cells = assay: Cell cycle analysis by flow cytometry; type: cell-based, human; settings: 10 µM for 24 h
Experimental: About 2 × 10^6 cells were collected by trypsin and washed once with PBS. Cells were pelleted and fixed in 100 µl 4% formaldehyde (Sigma-Aldrich, 47608) for 15 min at room temperature. Cells were washed by centrifugation with an excess of 1× PBS. Pellets were resuspended in 100 µl 1× PBS, then 900 µl of ice-cold methanol (Sigma-Aldrich, 34860) was added drop by drop while vortexing. Cells were incubated for 10 min on ice to permeabilize them. Cells were washed by centrifugation with excess of 1× PBS, pellets were resuspended in 100 µl anti-phosphorylated-histone H3 Ser10 conjugated to PE (Cell Signalling Technology, 5764) antibodies diluted 1:50 in 0.5% BSA PBS buffer and incubated for 1 h at room temperature protected from the light. […] Stained cells were analysed on the Cytoflex flow cytometer (Beckman Coulter).
Data were collected in 10^5 particle units and analysed with CytExpert v.2.4 software. […] These singlets were then analysed for DAPI (DNA content) and PE (phosphorylated histone H3 Ser10) staining intensities. Data were analysed to show the percentage of nuclei in the G1, S and G2/M phases using the DAPI channel and the percentage of cells specifically in G2 or M phase using the PE channel.

T3 sequence (P54132 640-1298): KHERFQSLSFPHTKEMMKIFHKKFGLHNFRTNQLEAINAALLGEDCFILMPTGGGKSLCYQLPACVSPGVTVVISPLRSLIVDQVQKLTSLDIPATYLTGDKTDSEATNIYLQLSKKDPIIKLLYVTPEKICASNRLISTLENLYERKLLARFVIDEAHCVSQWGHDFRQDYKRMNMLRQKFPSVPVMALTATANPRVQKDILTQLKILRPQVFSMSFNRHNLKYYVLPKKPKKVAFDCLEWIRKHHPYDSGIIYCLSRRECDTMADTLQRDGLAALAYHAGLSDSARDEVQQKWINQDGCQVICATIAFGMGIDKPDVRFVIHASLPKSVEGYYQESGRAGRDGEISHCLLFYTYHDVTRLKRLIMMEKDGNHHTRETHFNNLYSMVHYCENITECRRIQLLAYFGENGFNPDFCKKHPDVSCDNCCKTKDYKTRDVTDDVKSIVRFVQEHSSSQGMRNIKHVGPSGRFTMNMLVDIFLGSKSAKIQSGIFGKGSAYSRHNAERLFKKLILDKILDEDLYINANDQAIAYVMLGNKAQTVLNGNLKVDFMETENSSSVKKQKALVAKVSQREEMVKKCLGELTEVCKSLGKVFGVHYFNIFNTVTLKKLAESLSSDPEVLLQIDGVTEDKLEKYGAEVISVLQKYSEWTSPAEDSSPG
T2 sequence (P46063 62-482): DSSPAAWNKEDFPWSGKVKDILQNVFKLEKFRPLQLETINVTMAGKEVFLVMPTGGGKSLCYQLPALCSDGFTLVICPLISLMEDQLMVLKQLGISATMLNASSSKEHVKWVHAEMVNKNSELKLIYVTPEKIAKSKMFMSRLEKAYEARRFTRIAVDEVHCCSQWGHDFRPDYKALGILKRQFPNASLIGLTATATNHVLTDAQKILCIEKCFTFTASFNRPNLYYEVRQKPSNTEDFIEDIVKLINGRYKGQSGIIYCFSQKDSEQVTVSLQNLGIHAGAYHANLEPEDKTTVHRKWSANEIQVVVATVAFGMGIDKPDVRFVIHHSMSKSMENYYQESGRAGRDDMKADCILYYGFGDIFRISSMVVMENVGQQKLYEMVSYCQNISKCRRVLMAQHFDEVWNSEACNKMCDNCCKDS
T1 sequence (O94762 11-453): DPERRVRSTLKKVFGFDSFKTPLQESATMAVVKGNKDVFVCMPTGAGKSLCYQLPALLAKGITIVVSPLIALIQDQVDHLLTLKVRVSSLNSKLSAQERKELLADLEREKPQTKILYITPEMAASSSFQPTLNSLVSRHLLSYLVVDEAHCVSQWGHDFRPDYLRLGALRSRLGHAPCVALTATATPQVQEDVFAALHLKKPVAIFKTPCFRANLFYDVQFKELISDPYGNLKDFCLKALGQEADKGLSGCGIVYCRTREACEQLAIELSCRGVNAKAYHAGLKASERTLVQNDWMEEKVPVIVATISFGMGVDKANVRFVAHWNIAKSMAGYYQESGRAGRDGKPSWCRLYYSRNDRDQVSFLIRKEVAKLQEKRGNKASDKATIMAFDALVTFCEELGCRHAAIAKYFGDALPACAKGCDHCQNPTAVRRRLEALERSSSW

Work on `CCc1c(N2CCN(C(=O)c3ncnc(C)c3O)CC2)c(=O)n2nc(C3=CCOCC3)nc2n1CC(=O)Nc1ccc(C(F)(F)F)cc1Cl` [HRO761] yielded a GI50 (SNU407) of 25 nM, a GI50 (SW48; HRO761 alone) of 100 nM and a GI50 (SW48; HRO761 dose response with 3.2 µM ATMi KU-55933) of 200 nM. The GI50 (SW48; read-out: 4 day assay GI50, SW48) was 58 nM, the “unbound GI90” value (SW48; SW48) was 0.16 µM and the GI50 (HEC1B) was ≥ 10 µM. For the same compound, the IC50 (RecQ5) was > 100 µM, the IC50 (RecQ1) was > 100 µM and the IC50 (BLM) was > 100 µM. The cell cycle effect (HCT116 cells) was “potent G2 cell cycle arrest”.
